Laboratory results from the NIST ThermoML archive (doi:10.1016/j.jct.2011.06.002).
± gives the expanded uncertainty stated by the source.

Conditions: for viscosity: 101.33 kPa, Liquid, Falling or rolling sphere viscometry

Cl.Cn1ccnc1 [1-methylimidazolium chloride]
viscosity (348.15 K): 108.86 ± 3.6 mPa·s
viscosity (351.15 K): 92.99 ± 2.8 mPa·s
viscosity (353.15 K): 84.17 ± 2.3 mPa·s
viscosity (358.15 K): 66.28 ± 1.6 mPa·s
Normal melting temperature (Crystal, DTA): 74.16 ± 2 °C
